From PubChem BioAssay (NCI)
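Following 48 hours of exposure in 96-well plates, responses at five concentrations were used to interpolate endpoints linearly. TGI denotes the concentration required for complete inhibition of growth.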

How the values were obtained:
Assay in all cases: NCI-60 cell line screen, 48 h
COLO 205 colon = test system: COLO 205 colon
PC-3 prostate = test system: PC-3 prostate
SK-MEL-5 melanoma = test system: SK-MEL-5 melanoma
CAKI-1 renal = test system: CAKI-1 renal
M14 melanoma = test system: M14 melanoma
SF-268 CNS = test system: SF-268 CNS
MDA-N = test system: MDA-N
RPMI-8226 leukemia = test system: RPMI-8226 leukemia
TK-10 renal = test system: TK-10 renal
MDA-MB-231 breast = test system: MDA-MB-231 breast

Measured: TGI

CC(=O)OCC1OC(N2C(S)=C(C#N)C(c3ccco3)C(C(C)=O)=C2c2ccccc2)C(OC(C)=O)C(OC(C)=O)C1OC(C)=O (stereo not given)
> 100 µM: COLO 205 colon | PC-3 prostate | SK-MEL-5 melanoma | CAKI-1 renal | M14 melanoma | SF-268 CNS | MDA-N | RPMI-8226 leukemia | TK-10 renal | MDA-MB-231 breast

CCCC1(N)CC(OC)OC(C)C1O (stereo not given)
> 100 µM: COLO 205 colon | PC-3 prostate | SK-MEL-5 melanoma | CAKI-1 renal | M14 melanoma | SF-268 CNS | MDA-N | RPMI-8226 leukemia | TK-10 renal | MDA-MB-231 breast
